In patent US7411083B2, “Substituted acetic acid derivatives” (Wyeth, priority 2003, dated 2008):

The molecules below were run against T1, recombinant human plasminogen activator inhibitor-1 (PAI-1) (Homo sapiens, UniProt P05121) (assay: Screening for PAI-1 inhibition (residual tPA activity, Spectrozyme-tPA chromogenic substrate)). Settings: test compound at 100 Um; pH 6.6 buffer, 140 nM PAI-1, 70 nM tPA.
T1 construct: purchased Molecular Innovations, Royal Oak, Mich
Assay type: biochemical
Procedure: Screening for PAI-1 inhibition. Test compounds are dissolved in DMSO at a final concentration of 10 Mm, then diluted 100× in physiologic buffer. The inhibitory assay is initiated by the addition of the test compound (1-100 μM final concentration, maximum DMSO concentration of 0.2%) in a Ph 6.6 buffer containing 140 Nm recombinant human plasminogen activator inhibitor-1 (PAI-1; Molecular Innovations, Royal Oak, Mich.). Following a 1 hour incubation at room temperature, 70 Nm of recombinant human tissue plasminogen activator (Tpa) is added, and the combination of the test compound, PAI-1 and Tpa is incubated for an additional 30 minutes. Following the second incubation, Spectrozyme-Tpa (American Diagnostica, Greenwich, Conn.), a chromogenic substrate for Tpa, is added and absorbance read at 405 nm at 0 and 60 minutes. Relative PAI-1 inhibition is equal to the residual Tpa activity in the presence of the test compounds and PAI-1. Control treatments include the complete inhibition of Tpa by PAI-1 at the molar ratio employed (2:1), and the absence of any effect of the test compound on Tpa alone.

T1 sequence (P05121 24-402): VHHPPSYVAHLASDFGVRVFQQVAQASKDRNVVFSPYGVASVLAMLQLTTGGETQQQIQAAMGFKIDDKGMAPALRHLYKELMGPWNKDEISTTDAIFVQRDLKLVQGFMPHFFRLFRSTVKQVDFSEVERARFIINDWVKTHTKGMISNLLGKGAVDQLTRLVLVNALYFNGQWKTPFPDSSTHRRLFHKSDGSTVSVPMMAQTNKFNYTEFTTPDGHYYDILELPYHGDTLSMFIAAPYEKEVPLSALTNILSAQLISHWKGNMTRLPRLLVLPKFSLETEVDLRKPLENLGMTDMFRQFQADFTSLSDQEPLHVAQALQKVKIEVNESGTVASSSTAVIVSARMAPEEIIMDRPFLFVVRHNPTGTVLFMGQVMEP

Point of comparison: `Cc1cccc(COc2ccc(-c3cccc(/C=N/OCC(=O)O)c3)cc2)c1` [Compound 86, {[((1E)-{4′-[(3-methylbenzyl)oxy]-1,1′-biphenyl-3-yl}methylidene)amino]oxy}acetic acid], inhibition at 100 µM 22%. Against it:
- O=C(O)CO/N=C/c1cccc(-c2cccc(OCc3ccc(Cl)cc3)c2)c1 [Compound 66, {[((1E)-{3′-[(4-chlorobenzyl)oxy]-1,1′-biphenyl-3-yl}methylidene)amino]oxy}acetic acid] — higher, 84%
- O=C(O)CO/N=C/c1cccc(-c2cccc(OCc3ccccc3Cl)c2)c1 [Compound 67, {[((1E)-{3′-[(2-chlorobenzyl)oxy]-1,1′-biphenyl-3-yl}methylidene)amino]oxy}acetic acid] — higher, 87%
- O=C(O)CO/N=C/c1cccc(-c2cccc(OCc3ccc(Cl)c(Cl)c3)c2)c1 [Compound 68, {[((1E)-{3′-[(3,4-dichlorobenzyl)oxy]-1,1′-biphenyl-3-yl}methylidene)amino]oxy}acetic acid] — higher, 83%
- O=C(O)CO/N=C/c1cccc(-c2cccc(OCc3ccc4ccccc4c3)c2)c1 [Compound 69, [({(1E)-[3′-(2-naphthylmethoxy)-1,1′-biphenyl-3-yl]methylidene}amino)oxy]acetic acid] — higher, 53%
- Cc1ccc(COc2cccc(-c3cccc(/C=N/OCC(=O)O)c3)c2)cc1 [Compound 70, {[((1E)-{3′-[(4-methylbenzyl)oxy]-1,1′-biphenyl-3-yl}methylidene)amino]oxy}acetic acid] — higher, 83%
- Cc1cccc(COc2cccc(-c3cccc(/C=N/OCC(=O)O)c3)c2)c1 [Compound 71, {[((1E)-{3′-[(3-methylbenzyl)oxy]-1,1′-biphenyl-3-yl}methylidene)amino]oxy}acetic acid] — higher, 85%
- O=C(O)CO/N=C/c1cccc(-c2cccc(OCc3c(Cl)cccc3Cl)c2)c1 [Compound 72, {[((1E)-{3′-[(2,6-dichlorobenzyl)oxy]-1,1′-biphenyl-3-yl}methylidene)amino]oxy}acetic acid] — higher, 88%
- O=C(O)CO/N=C/c1cccc(-c2ccc(OCc3ccc(C(F)(F)F)cc3)cc2)c1 [Compound 73, ({[(1E)-(4′-{[4-(trifluoromethyl)benzyl]oxy}-1,1′-biphenyl-3-yl)methylidene]amino}oxy)acetic acid] — higher, 59%
- CC(C)(C)c1ccc(COc2ccc(-c3cccc(/C=N/OCC(=O)O)c3)cc2)cc1 [Compound 74, {[((1E)-{4′-[(4-tert-butylbenzyl)oxy]-1,1′-biphenyl-3-yl}methylidene)amino]oxy}acetic acid] — higher, 34%
- O=C(O)CO/N=C/c1cccc(-c2ccc(OCc3ccc(Br)cc3)cc2)c1 [Compound 75, {[((1E)-{4′-[(4-bromobenzyl)oxy]-1,1′-biphenyl-3-yl}methylidene)amino]oxy}acetic acid] — higher, 75%
- O=C(O)CO/N=C/c1cccc(-c2ccc(OCc3cc(C(F)(F)F)cc(C(F)(F)F)c3)cc2)c1 [Compound 76, ({[(1E)-(4′-{[3,5-bis(trifluoromethyl)benzyl]oxy}-1,1′-biphenyl-3-yl)methylidene]amino}oxy)acetic acid] — higher, 73%
- O=C(O)CO/N=C/c1cccc(-c2ccc(OCc3cccc(Br)c3)cc2)c1 [Compound 77, {[((1E)-{4′-[(3-bromobenzyl)oxy]-1,1′-biphenyl-3-yl}methylidene)amino]oxy}acetic acid] — higher, 85%
- O=C(O)CO/N=C/c1cccc(-c2ccc(OCc3cccc(Cl)c3)cc2)c1 [Compound 78, {[((1E)-{4′-[(3-chlorobenzyl)oxy]-1,1′-biphenyl-3-yl}methylidene)amino]oxy}acetic acid] — higher, 23%
- O=C(O)CO/N=C/c1cccc(-c2ccc(OCc3ccccc3)cc2)c1 [Compound 79, [({(1E)-[4′-(benzyloxy)-1,1′-biphenyl-3-yl]methylidene}amino)oxy]acetic acid] — higher, 53%
- O=C(O)CO/N=C/c1cccc(-c2ccc(OCc3cccc(C(F)(F)F)c3)cc2)c1 [Compound 80, ({[(1E)-(4′-{[3-(trifluoromethyl)benzyl]oxy}-1,1′-biphenyl-3-yl)methylidene]amino}oxy)acetic acid] — higher, 78%
- O=C(O)CO/N=C/c1cccc(-c2ccc(OCc3ccc(Cl)cc3)cc2)c1 [Compound 81, {[((1E)-{4′-[(4-chlorobenzyl)oxy]-1,1′-biphenyl-3-yl}methylidene)amino]oxy}acetic acid] — higher, 28%
- O=C(O)CO/N=C/c1cccc(-c2ccc(OCc3ccccc3Cl)cc2)c1 [Compound 82, {[((1E)-{4′-[(2-chlorobenzyl)oxy]-1,1′-biphenyl-3-yl}methylidene)amino]oxy}acetic acid] — higher, 89%
- O=C(O)CO/N=C/c1cccc(-c2ccc(OCc3ccc(Cl)c(Cl)c3)cc2)c1 [Compound 83, {[((1E)-{4′-[(3,4-dichlorobenzyl)oxy]-1,1′-biphenyl-3-yl}methylidene)amino]oxy}acetic acid] — higher, 57%
- O=C(O)CO/N=C/c1cccc(-c2ccc(OCc3ccc4ccccc4c3)cc2)c1 [Compound 84, [({(1E)-[4′-(2-naphthylmethoxy)-1,1′-biphenyl-3-yl]methylidene}amino)oxy]acetic acid] — higher, 30%
- Cc1ccc(COc2ccc(-c3cccc(/C=N/OCC(=O)O)c3)cc2)cc1 [Compound 85, {[((1E)-{4′-[(4-methylbenzyl)oxy]-1,1′-biphenyl-3-yl}methylidene)amino]oxy}acetic acid] — higher, 34%
- O=C(O)CO/N=C/c1cccc(-c2ccc(OCc3c(Cl)cccc3Cl)cc2)c1 [Compound 87, {[((1E)-{4′-[(2,6-dichlorobenzyl)oxy]-1,1′-biphenyl-3-yl}methylidene)amino]oxy}acetic acid] — higher, 85%
- O=C(O)CO/N=C/c1ccc(-c2cccc(OCc3ccc(C(F)(F)F)cc3)c2)cc1 [Compound 88, ({[(1E)-(3′-{[4-(trifluoromethyl)benzyl]oxy}-1,1′-biphenyl-4-yl)methylidene]amino}oxy)acetic acid] — higher, 34%
- CC(C)(C)c1ccc(COc2cccc(-c3ccc(/C=N/OCC(=O)O)cc3)c2)cc1 [Compound 89, {[((1E)-{3′-[(4-tert-butylbenzyl)oxy]-1,1′-biphenyl-4-yl}methylidene)amino]oxy}acetic acid] — higher, 57%
- O=C(O)CO/N=C/c1ccc(-c2cccc(OCc3cc(C(F)(F)F)cc(C(F)(F)F)c3)c2)cc1 [Compound 90, ({[(1E)-(3′-{[3,5-bis(trifluoromethyl)benzyl]oxy}-1,1′-biphenyl-4-yl)methylidene]amino}oxy)acetic acid] — higher, 30%
- O=C(O)CO/N=C/c1ccc(-c2cccc(OCc3cccc(Br)c3)c2)cc1 [Compound 91, {[((1E)-{3′-[(3-bromobenzyl)oxy]-1,1′-biphenyl-4-yl}methylidene)amino]oxy}acetic acid] — higher, 77%
- O=C(O)CO/N=C/c1ccc(-c2cccc(OCc3cccc(Cl)c3)c2)cc1 [Compound 92, {[((1E)-{3′-[(3-chlorobenzyl)oxy]-1,1′-biphenyl-4-yl}methylidene)amino]oxy}acetic acid] — higher, 76%
- O=C(O)CO/N=C/c1ccc(-c2cccc(OCc3ccccc3)c2)cc1 [Compound 93, [({(1E)-[3′-(benzyloxy)-1,1′-biphenyl-4-yl]methylidene}amino)oxy]acetic acid] — higher, 85%
- O=C(O)CO/N=C/c1ccc(-c2cccc(OCc3cccc(C(F)(F)F)c3)c2)cc1 [Compound 94, ({[(1E)-(3′-{[3-(trifluoromethyl)benzyl]oxy}-1,1′-biphenyl-4-yl)methylidene]amino}oxy)acetic acid] — higher, 74%
- O=C(O)CO/N=C/c1ccc(-c2cccc(OCc3ccc(Cl)cc3)c2)cc1 [Compound 95, {[((1E)-{3′-[(4-chlorobenzyl)oxy]-1,1′-biphenyl-4-yl}methylidene)amino]oxy}acetic acid] — higher, 27%
- O=C(O)CO/N=C/c1ccc(-c2cccc(OCc3ccccc3Cl)c2)cc1 [Compound 96, {[((1E)-{3′-[(2-chlorobenzyl)oxy]-1,1′-biphenyl-4-yl}methylidene)amino]oxy}acetic acid] — higher, 61%
- O=C(O)CO/N=C/c1ccc(-c2cccc(OCc3ccc(Cl)c(Cl)c3)c2)cc1 [Compound 97, {[((1E)-{3′-[(3,4-dichlorobenzyl)oxy]-1,1′-biphenyl-4-yl}methylidene)amino]oxy}acetic acid] — higher, 65%
- O=C(O)CO/N=C/c1ccc(-c2cccc(OCc3ccc4ccccc4c3)c2)cc1 [Compound 98, [({(1E)-[3′-(2-naphthylmethoxy)-1,1′-biphenyl-4-yl]methylidene}amino)oxy]acetic acid] — higher, 46%
- Cc1ccc(COc2cccc(-c3ccc(/C=N/OCC(=O)O)cc3)c2)cc1 [Compound 99, {[((1E)-{3′-[(4-methylbenzyl)oxy]-1,1′-biphenyl-4-yl}methylidene)amino]oxy}acetic acid] — higher, 84%
- Cc1cccc(COc2cccc(-c3ccc(/C=N/OCC(=O)O)cc3)c2)c1 [Compound 100, {[((1E)-{3′-[(3-methylbenzyl)oxy]-1,1′-biphenyl-4-yl}methylidene)amino]oxy}acetic acid] — higher, 63%
